Results from PubChem BioAssay AID330 (DTP/NCI, 2004).
Values joined by “and” are separate entries in the source; they are usually repeats but may differ in a detail not shown here. Identical values can stand only once. Toxic doses and inconclusive results are not listed. How the source made its calls: active means survival T/C of 150% or more; inactive means T/C below 125% in these data.

Tested on: P388 leukemia ip, CD2F1 mice, survival T/C
Test: NCI In Vivo Anticancer Drug Screen. Data for tumor model P388 Leukemia (intraperitoneal) in CD2F1 (CDF1) mice
Conditions: endpoint: median survival time, higher = longer survival
In short: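 Mice carrying the transplanted tumor received test compound or vehicle. Survival was recorded in each group, and the value is the treated-group measurement divided by that of the vehicle-treated control group.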

[1] = dose: 50.0 mg/kg/injection, schedule: Q01DX005 (ip), vehicle: saline with Tween-80
[2] = dose: 100.0 mg/kg/injection, schedule: Q01DX005 (ip), vehicle: saline with Tween-80
[3] = dose: 200.0 mg/kg/injection, schedule: Q01DX005 (ip), vehicle: saline with Tween-80
[4] = dose: 25.0 mg/kg/injection, schedule: Q01DX009 (ip), vehicle: saline with Tween-80
[5] = dose: 6.25 mg/kg/injection, schedule: Q01DX009 (ip), vehicle: distilled water + Tween-80
[6] = dose: 12.5 mg/kg/injection, schedule: Q01DX009 (ip), vehicle: distilled water + Tween-80
[7] = dose: 25.0 mg/kg/injection, schedule: Q01DX009 (ip), vehicle: distilled water + Tween-80

Measured: T/C

O=NNc1ccncc1
inactive: dose: 6.25 mg/kg/injection, schedule: Q01DX005 (ip), vehicle: saline 109 % of control | dose: 12.5 mg/kg/injection, schedule: Q01DX005 (ip), vehicle: saline 122 % of control | dose: 25.0 mg/kg/injection, schedule: Q01DX005 (ip), vehicle: saline 120 % of control

CC1=CNC(=O)CC(C)(C)C1
inactive: [1] 105 % of control | [2] 105 % of control | [3] 104 % of control

c1ccc(-c2nc3ccccc3nc2-c2ccc(Sc3ccc(-c4nc5ccccc5nc4-c4ccccc4)cc3)cc2)cc1
inactive: dose: 6.25 mg/kg/injection, schedule: Q01DX009 (ip), vehicle: saline with Tween-80 96 % of control | dose: 12.5 mg/kg/injection, schedule: Q01DX009 (ip), vehicle: saline with Tween-80 93 % of control | [4] 90 % of control

C1CCC(N2CSC3CCCCC32)CC1 (stereo unspecified)
inactive: dose: 60.0 mg/kg/injection, schedule: Q01DX005 (ip), vehicle: Klucel (hydroxypropylcellulose) (HPC) 95 % of control | dose: 120.0 mg/kg/injection, schedule: Q01DX005 (ip), vehicle: Klucel (hydroxypropylcellulose) (HPC) 97 % of control

CCCC1(c2ccccc2)CC(=O)NC1=O (stereo unspecified)
inactive: dose: 60.0 mg/kg/injection, schedule: Q01DX005 (ip), vehicle: saline 98 % of control | dose: 120.0 mg/kg/injection, schedule: Q01DX005 (ip), vehicle: saline 98 % of control | dose: 240.0 mg/kg/injection, schedule: Q01DX005 (ip), vehicle: saline 102 % of control

CCOC1=C(C#N)C(SC)=CS(C)(=O)=C1 (stereo unspecified)
inactive: dose: 50.0 mg/kg/injection, schedule: Q04DX003 (ip), vehicle: Klucel (hydroxypropylcellulose) (HPC) 98 % of control | dose: 100.0 mg/kg/injection, schedule: Q04DX003 (ip), vehicle: Klucel (hydroxypropylcellulose) (HPC) 97 % of control | dose: 200.0 mg/kg/injection, schedule: Q04DX003 (ip), vehicle: Klucel (hydroxypropylcellulose) (HPC) 101 % of control

O=C1C=C(NCCNCCO)C(=O)c2ccccc21
inactive: [5] 96 % of control | [6] 98 % of control and 95 % of control | [7] 109 % of control and 95 % of control | dose: 50.0 mg/kg/injection, schedule: Q01DX009 (ip), vehicle: distilled water + Tween-80 111 % of control and 94 % of control | dose: 100.0 mg/kg/injection, schedule: Q01DX009 (ip), vehicle: distilled water + Tween-80 88 % of control and 97 % of control

COc1cc(/C=N/NS(=O)(=O)c2ccc(C)cc2)cc([N+](=O)[O-])c1O
inactive: dose: 3.12 mg/kg/injection, schedule: Q01DX009 (ip), vehicle: distilled water + Tween-80 87 % of control | [5] 103 % of control | [6] 104 % of control | [7] 104 % of control | dose: 25.0 mg/kg/injection, schedule: Q01DX009 (ip), vehicle: other 106 % of control | dose: 50.0 mg/kg/injection, schedule: Q01DX009 (ip), vehicle: other 99 % of control | dose: 100.0 mg/kg/injection, schedule: Q01DX009 (ip), vehicle: other 106 % of control | dose: 200.0 mg/kg/injection, schedule: Q01DX009 (ip), vehicle: other 98 % of control | dose: 400.0 mg/kg/injection, schedule: Q01DX009 (ip), vehicle: other 113 % of control

CN/N=C\c1cc2ccccc2c2ccccc12
inactive: [1] 96 % of control | [2] 91 % of control | [3] 88 % of control

CCOC(=S)/N=C1/SCS(=O)(=O)N1c1ccccc1
inactive: dose: 50.0 mg/kg/injection, schedule: Q04DX003 (ip), vehicle: saline with Tween-80 99 % of control | dose: 100.0 mg/kg/injection, schedule: Q04DX003 (ip), vehicle: saline with Tween-80 95 % of control | dose: 200.0 mg/kg/injection, schedule: Q04DX003 (ip), vehicle: saline with Tween-80 98 % of control

N#Cc1c(Cl)c(Cc2ccccc2)c(Cl)n2c1nc1ccccc12
inactive: dose: 60.0 mg/kg/injection, schedule: Q01DX005 (ip), vehicle: saline with Tween-80 100 % of control | dose: 120.0 mg/kg/injection, schedule: Q01DX005 (ip), vehicle: saline with Tween-80 108 % of control | dose: 240.0 mg/kg/injection, schedule: Q01DX005 (ip), vehicle: saline with Tween-80 99 % of control

COc1cccc(CN2CCN(N=O)CC2)c1
inactive: dose: 25.0 mg/kg/injection, schedule: Q01DX009 (ip), vehicle: Klucel (hydroxypropylcellulose) (HPC) 105 % of control | dose: 50.0 mg/kg/injection, schedule: Q01DX009 (ip), vehicle: Klucel (hydroxypropylcellulose) (HPC) 97 % of control | dose: 100.0 mg/kg/injection, schedule: Q01DX009 (ip), vehicle: Klucel (hydroxypropylcellulose) (HPC) 95 % of control | dose: 200.0 mg/kg/injection, schedule: Q01DX009 (ip), vehicle: Klucel (hydroxypropylcellulose) (HPC) 105 % of control

CC(C)C12C=CC(C)(CC1)OO2 (stereo unspecified)
inactive: [4] 104 % of control | dose: 50.0 mg/kg/injection, schedule: Q01DX009 (ip), vehicle: saline with Tween-80 100 % of control and 102 % of control
